Laboratory results published in PubChem BioAssay AID1996.
Values after ≈ are worked out from the molar mass of the structure shown.

Settings: buffer; pH 7.4; 200.0 µM
For COc1cccc2[nH]c(C(=O)NCCCN3CCCC3=O)cc12, the solubility kinetic was > 47.3 µg/mL.
Work on O=C(COC(=O)CCc1c[nH]c2ccccc12)Nc1ccccc1 yielded a solubility kinetic of 4.5 µg/mL (≈ 14 µM).
Work on Cc1ccc(/C=C2/SC(=O)NC2=S)o1 yielded a solubility kinetic of 31.1 µg/mL (≈ 138 µM).
Compound CCCc1cc(=O)[nH]c(SCC(=O)Nc2ccc(S(=O)(=O)N3CCCC3)cc2)n1 has a solubility kinetic of 29 µg/mL (≈ 66.4 µM).
Compound Cc1cc(NC(=O)c2cccc(Br)c2)no1 has a solubility kinetic of 4.2 µg/mL (≈ 14.9 µM).
Cc1ccccc1OCC(=O)Nc1ccc2oc(=O)ccc2c1 gave a solubility kinetic of 1.1 µg/mL (≈ 3.56 µM).
Work on O=C(Nc1ccc(NC(=O)C2CC2)cn1)c1ccccc1 yielded a solubility kinetic of 41.6 µg/mL (≈ 148 µM).
Work on CN(CCO)C(=O)c1c(NC(=O)c2ccccc2)sc2c1CCCC2 yielded a solubility kinetic of 34.1 µg/mL (≈ 95.1 µM).
Work on S=C(NC1CCCCC1)N1CCn2cccc2C1c1ccncc1 (centres undefined) yielded a solubility kinetic of 36.1 µg/mL (≈ 106 µM).
Work on NS(=O)(=O)c1ccc(NC(=O)c2cc(Cl)sc2Cl)cc1 yielded a solubility kinetic of 15.4 µg/mL (≈ 43.8 µM).
For CCn1c(=S)[nH]c2cc(C(=O)O)ccc21, the solubility kinetic was > 33.3 µg/mL.
CC(=O)N(CCN(C)C)c1nc2cc3c(cc2s1)OCCO3.Cl showed a solubility kinetic of 47.6 µg/mL.
Cc1onc(-c2c(F)cccc2Cl)c1C(=O)NCc1ccccc1 showed a solubility kinetic of 49.7 µg/mL (≈ 144 µM).
For C/C(=N\O)c1cc(Cl)cc(Cl)c1O, the solubility kinetic was 30.5 µg/mL (≈ 139 µM).
With CCOc1ccc(C(=O)NCCN2CCCCC2)c(OCC)c1 the solubility kinetic was > 48.1 µg/mL.
CCOc1ccc(Br)cc1S(=O)(=O)N1CCSC1 showed a solubility kinetic of 7.2 µg/mL (≈ 20.4 µM).
For CCCCN(C)Cc1c(C)[nH]c2c(ccc3ccccc32)c1=O, the solubility kinetic was > 46.3 µg/mL.
With CC(=O)Nc1ccc(OCC(=O)NC(C)c2ccc(F)cc2)cc1 (centres undefined) the solubility kinetic was > 49.6 µg/mL.
Cc1ccc(NC(=O)CCN2C(=O)c3ccccc3C2=O)c(C)c1 showed a solubility kinetic of 4.9 µg/mL (≈ 15.2 µM).
For O=C(Nc1ccc(Cl)cc1F)c1ccc2c(c1)C(=O)N(Cc1ccncc1)C2=O, the solubility kinetic was 10.8 µg/mL (≈ 26.4 µM).
In the case of Clc1ccc(N=c2ssnc2Cl)cc1, the solubility kinetic is reported as 2.7 µg/mL (≈ 10.3 µM).
For Cc1cccc(N2CCN(C(=O)NC3CCCCC3)CC2C)c1 (centres undefined), the solubility kinetic was > 47.3 µg/mL.
With COc1cccc(NC(=O)COC(=O)c2c(C)noc2C)c1 the solubility kinetic was > 45.6 µg/mL.
With O=C(Nc1ncccc1O)c1ccc2ccccc2c1 the solubility kinetic was > 39.6 µg/mL.
With CCOc1c(C)cc(S(=O)(=O)NCc2ccccn2)c(C)c1C the solubility kinetic was > 50.2 µg/mL.
In the case of O=C(O)c1cc(-c2cccs2)nc2ccc(Br)cc12, the solubility kinetic is reported as > 50.1 µg/mL.
With CC(C)(C#CC(O)(c1ccccc1)c1ccccc1)N1CCCC1.Cl the solubility kinetic was > 53.4 µg/mL.
For N#CCn1c(CN2CCCC2)nc2ccccc2c1=O, the solubility kinetic was 38.6 µg/mL (≈ 144 µM).
With Cc1cc(=O)n(-c2ccc(Cl)cc2)c(=O)[nH]1 the solubility kinetic was > 35.5 µg/mL.
Compound CC(C)(C)c1ccc(-c2noc(-c3ccc4c(c3)CCO4)n2)cc1 has a solubility kinetic of 0.8 µg/mL (≈ 2.5 µM).
Compound Cc1cccc2cc(/C=C/C(=O)c3ccco3)c(Cl)nc12 has a solubility kinetic of 3.9 µg/mL (≈ 13.1 µM).
In the case of Cl.O=C(O)C1=CCNCC1, the solubility kinetic is reported as > 24.5 µg/mL.
For CCN(C(=O)CSc1nnc(C)c(=O)[nH]1)c1cccc2ccccc12, the solubility kinetic was > 53.2 µg/mL.
For COC(=O)Nc1ccc(S(=O)(=O)N2CCCC(C(=O)NCC3CCCO3)C2)cc1 (centres undefined), the solubility kinetic was > 63.8 µg/mL.
In the case of CCNC(=O)COC(=O)CCC(=O)c1ccc(F)cc1, the solubility kinetic is reported as > 42.2 µg/mL.
In the case of Cc1ncc([N+](=O)[O-])n1CC(=O)Nc1ccc(F)c(Cl)c1, the solubility kinetic is reported as 0.5 µg/mL (≈ 1.6 µM).
For CCCCNC(=O)Cn1nc(Cc2ccncc2)c2ccccc2c1=O, the solubility kinetic was > 52.6 µg/mL.
For CCCc1cc(=S)n2c([nH]c3ccccc32)c1C#N, the solubility kinetic was 16.4 µg/mL (≈ 61.3 µM).
Work on Nc1cccc(NP(=O)(c2ccccc2)c2ccccc2)c1 yielded a solubility kinetic of 1.7 µg/mL (≈ 5.51 µM).
In the case of COc1ccc(S(=O)(=O)n2cnc3ccccc32)cc1OC, the solubility kinetic is reported as > 47.8 µg/mL.
In the case of Cc1cc(C(=O)NCCN2CCOCC2)c2ccccc2n1, the solubility kinetic is reported as > 44.9 µg/mL.
In the case of O=C(O)c1ccccc1N1C(=O)C2C3CCC(C3)C2C1=O (centres undefined), the solubility kinetic is reported as 39.5 µg/mL (≈ 138 µM).
With CN(C)C(=S)Nc1ccc(Cc2ccncc2)cc1 the solubility kinetic was 36.5 µg/mL (≈ 134 µM).
With O=C(O)Cc1ccc(NC(=O)Nc2ccc3c(c2)OCO3)cc1 the solubility kinetic was > 47.1 µg/mL.
In the case of COc1cc2c(cc1OC)CN(Cc1ccc(C)cc1)CC2, the solubility kinetic is reported as 35.1 µg/mL (≈ 118 µM).
Compound O=C(OCc1ccccc1)N1CCc2ccccc21 has a solubility kinetic of 0.9 µg/mL (≈ 3.55 µM).
For CC(C)CCNC(=O)CSc1nc2ccccc2s1, the solubility kinetic was 38.6 µg/mL (≈ 131 µM).
In the case of COc1cccc(NC(=O)CN(C)C(=O)[C@@H]2CCCN2C(=O)c2cccs2)c1, the solubility kinetic is reported as > 60.2 µg/mL.
In the case of CC(=O)c1c(C)[nH]c(C(=O)Nc2cccc(C#N)c2)c1C, the solubility kinetic is reported as 10.8 µg/mL (≈ 38.4 µM).
In the case of COc1ccccc1-c1nc(C#N)c(N2CC(C)CC(C)C2)o1 (centres undefined), the solubility kinetic is reported as 1.5 µg/mL (≈ 4.82 µM).
With Cc1cc(C)c2c(CN3CCCCC3C)cc(=O)oc2c1.Cl (centres undefined) the solubility kinetic was 2 µg/mL.
In the case of Cc1ccccc1NC(=O)c1c(C)cc(=O)oc1C, the solubility kinetic is reported as > 38.6 µg/mL.
Compound COc1ccc(CCC(=O)OCc2csc(CC(=O)Nc3ccc(C)cc3)n2)cc1OC has a solubility kinetic of 9.9 µg/mL (≈ 21.8 µM).
Compound Cc1ncsc1C(=O)Nc1cccc(C(F)(F)F)c1 has a solubility kinetic of 40.7 µg/mL (≈ 142 µM).
In the case of O=C(CN1C(=O)COc2ccccc21)NCCN1CCOCC1, the solubility kinetic is reported as > 47.9 µg/mL.
Work on Cc1cc(=O)oc2cc(OCC(=O)NC3CCCCC3)c(Cl)cc12 yielded a solubility kinetic of 4.6 µg/mL (≈ 13.1 µM).
In the case of CCCOc1ccc(Cn2c(=O)oc3ccc(C)cc32)cc1, the solubility kinetic is reported as < 0.6 µg/mL.
CC1(C(=O)Nc2nc3ccc(S(C)(=O)=O)cc3s2)CC1(Cl)Cl (centres undefined) gave a solubility kinetic of 52.1 µg/mL (≈ 137 µM).
For NS(=O)(=O)c1ccc(CCNC(=S)NC2CCCCC2)cc1, the solubility kinetic was > 51.2 µg/mL.
